# What was measured:
# [1] = molecular target: T1, δ-PKC (Homo sapiens, UniProt Q05655); experiment: [3H]PDBu displacement from recombinant PKC isozyme (baculovirus); format: binding; conditions: [3H]PDBu competition
# T1 construct: made in house; host or cells: Sf9 cells (baculovirus)
# Procedure: (§1) These procedures are described below. […] (See the key that follows)
# (§2) Analysis of [20-^3H]phorbol 12,13-dibutyrate binding to PKC. […] [^3H]PDBu (20.0 Ci/mmol) was obtained from New England Nuclear. Phosphatidylserine and bovine […] were obtained from Sigma Chemical Co. Binding was determined in an incubation volume of 250 μl, containing [^3H]PDBu, PKC, 0.05 M Tris-Cl, pH 7.4, 100 μg/ml phosphatidylserine, various concentrations of the ligand being assayed for competition of [^3H]PDBu binding, and bovine […] at 1 mg/ml. In the case of the classical PKCs (α, β, […]) CaCl2 was included at a concentration of 0.1 mM. Liposomes of phosphatidylserine were prepared as follows. The phosphatidylserine solutions were dried down from CHCl3 under a stream of N2. After addition of 0.05 M Tris-Cl, pH 7.4, liposomes were prepared by sonication for 30 sec with the microtip probe of Sonifier Cell Disrupter (Heat Systems-Ultrasonics). [^3H]PDBu was used at a concentration twice the Kd previously determined for the specific receptor. Ligands were assayed over a concentration range of 3 orders of magnitude. Ligands were diluted in 0.05 M Tris-Cl, pH 7.4 containing 1 mg/ml bovine g-globulin. If the compounds were not soluble at the highest concentration used, they were dissolved in organic solvent (CHCl3 or ethanol) and mixed with the phosphatidylserine dissolved in CHCl3. The solvent was removed under a stream of N2.
# (§3) Mixed liposomes were then prepared, as described for the preparation of the liposomes of phosphatidylserine alone, by the addition of 0.05 M Tris-Cl, pH 7.4, and sonication for 30 sec with the microtip probe of a Sonifier Cell Disrupter (Heat Systems-Ultrasonics). Incubation was for 5 min at 37° C. […] After vigorous mixing, the samples were incubated for 15 min to allow precipitation of the receptor. The precipitate was recovered by centrifugation at 12,000 rpm in a Beckman microcentrifuge at 4° C. […] This value provided a measure of the concentration of unbound [^3H]PDBu. The remainder of the supernatant was removed by aspiration and blotting with absorbent tissue. The tip of the centrifuge tube was cut off and the radioactivity in the pellet measured to determine total bound [^3H]PDBu. Non-specific binding of [^3H]PDBu was measured in the presence of 30 μM non-radioactive PDBu and used to determine an apparent partition coefficient for [^3H]PDBu under these assay conditions.
# (§4) Specific binding represents the difference between total binding and the non-specific binding, where the latter value was calculated from the partition coefficient and the measured free [^3H]PDBu concentration in each tube. In each experiment, triplicate determinations were performed at each concentration of competing ligand. A half-maximal inhibitory concentration of inhibitor and a Ki for the inhibitor was determined by computer fit of the data points to the equation B(I)/B(O)=(L+Kd)/(Kd+(Kd/Ki)(I)+L), where B(I) represents the amount of [^3H]PDBu specifically bound in the presence of inhibitor, B(O) represents the amount specifically bound in the absence of inhibitor, L is the concentration of [^3H]PDBu, Kd is the measured dissociation constant for [^3H]PDBu, Ki is the dissociation constant for the inhibitor, and I is the concentration of inhibitor.
# (§5) Expression of PKC isozymes in baculovirus. […] After 60-72 hr, the cells were centrifuged (1000 rpm, 10 min) and washed twice with phosphate buffered saline, and the pelleted cells kept at −70° C. until used.
# (§6) For purification of the individual PKC isozymes, the cell pellet was resuspended in […] of a homogenization buffer of the following composition; 20 mM Tris-Cl, pH 8.0, 5 mM EDTA, 5 mM EGTA, 0.3% (v/v) 2-mercaptoethanol, 10 mM benzamidine, 50 μg/ml phenylmethylsulfonyl fluoride, and 250 μg/ml leupeptin. The cells were disrupted in a Potter-Elvehjem homogenizer at 4° C., and the homogenate is centrifuged at 100,000×g for 60 min.
# [2] = molecular target: T2, β-PKC (Homo sapiens, UniProt P05771); experiment: as above; format: binding; conditions: [3H]PDBu competition
# T2 construct: made in house; host or cells: Sf9 cells (baculovirus)
# Procedure: as §1, §2, §3, §4, §5, §6
# T1 sequence (Q05655 whole entry): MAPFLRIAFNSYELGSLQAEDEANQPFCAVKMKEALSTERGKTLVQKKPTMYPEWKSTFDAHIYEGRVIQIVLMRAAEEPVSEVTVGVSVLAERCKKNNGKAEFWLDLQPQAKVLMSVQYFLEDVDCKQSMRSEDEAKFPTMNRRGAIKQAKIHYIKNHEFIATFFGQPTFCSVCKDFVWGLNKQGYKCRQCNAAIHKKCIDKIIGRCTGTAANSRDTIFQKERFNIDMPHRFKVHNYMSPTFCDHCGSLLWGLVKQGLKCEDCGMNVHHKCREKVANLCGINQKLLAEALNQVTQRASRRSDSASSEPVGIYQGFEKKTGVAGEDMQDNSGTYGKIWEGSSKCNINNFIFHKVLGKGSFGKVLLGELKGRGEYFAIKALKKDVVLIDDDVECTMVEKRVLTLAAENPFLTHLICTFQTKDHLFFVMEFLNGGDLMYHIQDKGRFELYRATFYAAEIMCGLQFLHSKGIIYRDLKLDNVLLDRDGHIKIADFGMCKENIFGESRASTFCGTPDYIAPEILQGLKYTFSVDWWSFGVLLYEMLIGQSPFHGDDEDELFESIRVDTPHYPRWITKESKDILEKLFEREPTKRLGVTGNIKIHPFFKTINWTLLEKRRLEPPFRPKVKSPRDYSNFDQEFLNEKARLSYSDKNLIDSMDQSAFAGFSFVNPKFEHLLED
# T2 sequence (P05771 whole entry): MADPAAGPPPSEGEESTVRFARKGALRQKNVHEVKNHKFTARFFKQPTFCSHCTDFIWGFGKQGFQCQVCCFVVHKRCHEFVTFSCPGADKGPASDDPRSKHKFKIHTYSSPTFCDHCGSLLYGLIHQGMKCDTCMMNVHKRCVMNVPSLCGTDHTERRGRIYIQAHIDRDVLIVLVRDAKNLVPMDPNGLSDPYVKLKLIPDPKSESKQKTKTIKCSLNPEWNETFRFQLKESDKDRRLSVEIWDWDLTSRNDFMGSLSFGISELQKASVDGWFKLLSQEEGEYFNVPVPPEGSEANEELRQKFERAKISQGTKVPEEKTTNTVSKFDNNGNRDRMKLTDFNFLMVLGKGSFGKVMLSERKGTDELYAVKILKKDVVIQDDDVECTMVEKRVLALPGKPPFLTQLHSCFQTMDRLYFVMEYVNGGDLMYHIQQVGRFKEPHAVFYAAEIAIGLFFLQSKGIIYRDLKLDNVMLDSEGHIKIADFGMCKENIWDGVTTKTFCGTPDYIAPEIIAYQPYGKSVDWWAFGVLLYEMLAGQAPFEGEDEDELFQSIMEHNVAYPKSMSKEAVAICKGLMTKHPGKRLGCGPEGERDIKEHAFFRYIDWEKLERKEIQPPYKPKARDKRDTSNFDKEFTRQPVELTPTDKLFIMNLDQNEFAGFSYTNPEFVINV
SMILES,Ki [1],Ki [2]
"CCCCCCCCC#Cc1ccc2c(c1)C(C)(C(C)C)C1C(=O)NC(CO)C21 [Compound 1, (3S, 8R, 9S, 10S)-6-(dec-1′-ynyl)-3-hydroxymethyl-8-isopropyl-8-methyl-3,3a,8,8a-tetrahydro-2H-2-aza-cyclopenta[a]inden-1-one]",1630 ± 391 nM,
"CCCCCCCCCCCC(=O)Oc1ccc2c(c1)[C@](C)(C(C)C)[C@H]1C(=O)N[C@H](CO)[C@@H]21 [Compound 2, (3S, 8R, 9S, 10S)-6-dodecanoyloxyl-3-hydroxymethyl-8-isopropyl-8-methyl-3,3a,8,8a-tetrahydro-2H -2-aza-cyclopenta[a]inden-1-one]",1370 ± 329 nM,593 ± 178 nM
"CCCCCCCCCCCC(=O)Oc1ccc2c(c1)[C@@](C)(C(C)C)[C@H]1C(=O)N[C@H](CO)[C@@H]21 [Compound 3, (3S, 8S, 9S, 10S)-6-dodecanoyloxyl-3-hydroxymethyl-8-isopropyl-8-methyl-3,3a,8,8a-tetrahydro-2H -2-aza-cyclopenta[a]inden-1-one]",150 ± 64 nM,1050 ± 284 nM
"CCCCCCCCCCCC(=O)Oc1cc2c(cc1C(C)=O)[C@@H]1[C@@H](CO)NC(=O)[C@@H]1[C@]2(C)C(C)C [Compound 4, (3S, 8S, 9S, 10S)-5-acetyl-6-dodecanoyloxyl-3-hydroxymethyl-8-isopropyl-8-methyl-3,3a,8,8a-tetrahydro-2H -2-aza-cyclopenta[a]inden-1-one]",4370 ± 214 nM,8490 ± 3310 nM
"CCCCCCCCCCCC(=O)Oc1cc2c(cc1Br)[C@@H]1[C@@H](CO)NC(=O)[C@@H]1[C@]2(C)C(C)C [Compound 5, (3S, 8S, 9S, 10S)-5-bromo-6-dodecanoyloxyl-3-hydroxymethyl-8-isopropyl-8-methyl-3,3a,8,8a-tetrahydro-2H -2-aza-cyclopenta[a]inden-1-one]",623 ± 318 nM,1610 ± 257 nM
"CCCCCCCCCCCC(=O)Oc1cc2c(cc1C(C)=O)[C@@H]1[C@@H](CO)NC(=O)[C@@H]1[C@@]2(C)C(C)C [Compound 11, (3S, 8R, 9S, 10S)-5-acetyl-6-dodecanoyloxyl-3-hydroxymethyl-8-isopropyl-8-methyl-3,3a,8,8a-tetrahydro-2H -2-aza-cyclopenta[a]inden-1-one]",,> 10000 nM
